Measured values published in US9505765B2, “4-alkoxy/aralkoxy-5-substituted-pyrrolopyrimidine compounds as TAK1 inhibitors in disease treatment” (Confluence Life Sciences Inc., priority 2012, dated 2016).

What was measured:
[1] = molecular target: TAK1-TAB1 (Homo sapiens (Human), UniProt O43318); assay: TAK1-TAB1 competitive binding assay (LanthaScreen), without pre-incubation; details: 10 nM TAK1-TAB1, 100 nM kinase tracer-236, read-out: TAK1-TAB1 Inhibition IC50
Description: TAK1-TAB1 Binding Inhibitory Potency: The ability of candidate compounds to interact with TAK1-TAB1 is quantitated by a competitive binding assay using the LanthaScreen technology developed by Life Technologies. This assay is based on the binding of a proprietary, Alexa Fluor® 647-labeled, ATP-competitive kinase inhibitor (kinase tracer-236) to the TAK1-TAB1 construct in presence of a europium-conjugated antibody, resulting in a FRET (fluorescence resonance energy transfer) signal. Displacement of the kinase tracer by compound results in a lower emission ratio upon excitation of the europium chelate. Candidate compounds are designed as potential irreversible inhibitors of TAK1-TAB1, capable of ligating to an active site cysteine residue. The time dependent nature of irreversible inhibition is investigated by performing the binding assay with and without a pre-incubation of compound and TAK1-TAB1.
The inhibitory potency of candidate compounds is measured in 20 mM HEPES pH 7.5, 10 mM MgCl2, 0.01% BSA, 0.0005% Tween-20, and 2% DMSO in the presence of 10 nM TAK1-TAB1, 2 nM Eu-anti-his antibody, and 100 nM kinase tracer-236 using a 384-well plate format. Background signal is defined in the absence of TAK1-TAB1 and uninhibited signal is defined in the presence of vehicle (2% DMSO) alone. Compounds were evaluated in an 11 point dose-response ranging from 20 μM to 0.34 nM. The binding assays are performed under two conditions to evaluate time dependence of inhibition. For the pre-incubation assay, TAK1-TAB1 and Eu-anti-his antibody are preincubated with compound or vehicle for two hours prior to the addition of kinase tracer. The non-preincubated assay is run in which TAK1-TAB1 and Eu-anti-his antibody are added to a mixture of compound and kinase tracer. IC50 values of compounds are determined using a 4 parameter logistical fit of emission ratio as a function of the concentration of compound.
Compounds were tested in accordance with the above described assay, without pre-incubation, yielding the values described below: […]

[2] = tested on: A549 cells; assay: IL-1β stimulated IL-6 Production in A549 cells; format: cell-based; details: Homo sapiens, 1 ng/ml rhIL1β, 18 hrs; for IC50: read-out: IL-6 Production IC; for activity at 5 µM: 5 μM compound, read-out: IL-6 Production % Control 5 μM; for activity at 50 µM: 50 μM compound, read-out: IL-6 Production % Control 50 μM
Method: IL-1β stimulated IL-6 Production in A549 cells: The cellular efficacy of compound candidates is determined using the human lung epithelial cell line A549 (ATCC #CCL-185), based upon the methods of Wheeler et al. (2004) J. Nutrition 134, 1039-1044, and Eda et al. (2011) Cell Biol. Int. 35, 355-358. A549 cells produce a number of cytokines (IL6, IL8 and TNFα) in response to stimulation with IL1β. To induce the production of inflammatory mediators, A549 cells are plated at a final concentration of 3×10^5 cells/well of a 96 well flat bottom plate in F12-K medium supplemented with 10% fetal bovine serum, 100 units/ml penicillin and 100 μg/ml streptomycin (Gibco BRL Life Technologies). Cells are treated with or without inhibitors for 3 hrs then stimulated with 1 ng/ml rhIL1β (R & D Systems) for an additional 18 hrs at 37° C. with 5% CO2. The supernatants are removed and stored at −20° C. until they are to be assayed. The levels of inflammatory mediators are determined using commercial MSD cytokine kits (Meso Scale Discovery) as per the manufacturer's instructions. Standard curves are based on 7 steps of 4× serial dilutions, with a wide dynamic range of 10000 pg/ml to 2.4 pg/ml, and the blank in triplicate. Lower limit of detection (LLOD) is calculated at the commonly used 3× the standard deviation of the blank.
Compounds were tested in accordance with the above described assay, yielding the values described below: […]

Sequence of TAK1-TAB1 (O43318 other isoform, or with tags, fused parts or gaps): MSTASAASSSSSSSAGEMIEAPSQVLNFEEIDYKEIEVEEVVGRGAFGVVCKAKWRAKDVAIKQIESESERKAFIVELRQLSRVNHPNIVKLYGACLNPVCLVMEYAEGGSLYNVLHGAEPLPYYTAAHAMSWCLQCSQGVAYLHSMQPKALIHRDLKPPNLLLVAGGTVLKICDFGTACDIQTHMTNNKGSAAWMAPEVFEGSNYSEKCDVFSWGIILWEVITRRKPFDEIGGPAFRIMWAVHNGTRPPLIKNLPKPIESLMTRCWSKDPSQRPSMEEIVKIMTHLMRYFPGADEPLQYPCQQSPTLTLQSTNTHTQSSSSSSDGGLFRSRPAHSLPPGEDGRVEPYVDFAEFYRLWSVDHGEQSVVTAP

Compound | IC50 [2] [nM] | IC50 [1] [nM] | activity at 5 µM [2] [%] | activity at 50 µM [2] [%]
CC(C)(C)Oc1ncnc2[nH]cc(/C=C/C(N)=O)c12 [Example 195, (E)-3-(4-(tert-butoxy)-7H-pyrrolo[2,3-d]pyrimidin-5-yl)acrylamide] | 920 | 13 | 19 | 1
CC(C)COc1ncnc2[nH]cc(/C=C(\Cl)C(N)=O)c12 [Example 196, (Z)-2-chloro-3-(4-isobutoxy-7H-pyrrolo[2,3-d]pyrimidin-5-yl)acrylamide] | 750 | 360 | 0 | 0
C=C(C#N)c1c[nH]c2ncnc(OCC(C)C)c12 [Example 197, 2-(4-isobutoxy-7H-pyrrolo[2,3-d]pyrimidin-5-yl)acrylonitrile] | – | 750 | 128 | 75
CC(C)COc1ncnc2[nH]cc(C/C=C/C(N)=O)c12 [Example 198, 4-(4-isobutoxy-7H-pyrrolo[2,3-d]pyrimidin-5-yl)-but-2-enoic acid amide] | 8400 | 420 | 4 | 0

Continued, in another order:

IC50 [2] [nM] | Compound | IC50 [1] [nM] | activity at 5 µM [2] [%] | activity at 50 µM [2] [%]
78 | CC(C)(C)COc1ncnc2[nH]cc(/C=C/C(N)=O)c12 [Example 192, (E)-3-(4-(neopentyloxy)-7H-pyrrolo[2,3-d]pyrimidin-5-yl)acrylamide] | 5.2 | 0 | 0
1200 | CC(C)(O)COc1ncnc2[nH]cc(/C=C/C(N)=O)c12 [Example 193, (E)-3-(4-(2-hydroxy-2-methylpropoxy)-7H-pyrrolo[2,3-d]pyrimidin-5-yl)acrylamide] | 75 | 22 | 0
180 | NC(=O)/C=C/c1c[nH]c2ncnc(OC3CCC(F)(F)CC3)c12 [Example 199, 3-[4-(4,4-difluoro-cyclohexyloxy)-7H-pyrrolo[2,3-c]pyrimidin-5-yl]-acrylamide] | 16 | 0 | 0
800 | COC(=O)/C=C/c1c[nH]c2ncnc(OCc3ccccc3)c12 [Example 201, (E)-3-(4-benzyloxy-7H-pyrrolo[2,3-d]pyrimidin-5-yl)-acrylic acid methylester] | 350 | 26 | 1
